System: rat soleus muscle
Assay type: cell-based
Conditions: 4 h
Experimental: Male Harlan Sprague Dawley rats of approximately 200 g mass were used in order to maintain soleus muscle mass less than 40 mg. The animals were fasted for 4 hours prior to sacrifice by decapitation. The skin was stripped from the lower limb which was then pinned out on cork board. The tendo achilles was cut just above os […]. gastrocnemius reflected out from the posterior aspect of the tibia. M. soleus, a small 15-20 mm long, 0.5 mm thick flat muscle on the bone surface of m. gastrocnemius was then stripped clear and the perimysium cleaned off using fine scissors and forceps. M. soleus was then split into equal parts using a blade passed antero-posteriorly through the belly of the muscle to obtain a total of 4 muscle strips from each animal. […] Methods used to determine the nature and purity of rat and human amylin included quantitative amino acid analysis, gas phase amino acid sequencing, reverse phase HPLC and fast-atom-bombardment mass spectrometry. […] The concentration of human amylin present in the medium at the end of the incubation was determined by radioimmunoassay in surfactant-containing buffer. For both human and rat amylin, the actual mass added to the incubation medium was determined by quantitative amino-acid analysis. […] The remaining glycogen was redissolved in 1 mL water and 4 mL scintillation fluid and counted for ^14C. […]

Compound: CC[C@H](C)[C@H](NC(=O)[C@H](C)NC(=O)CNC(=O)[C@H](Cc1ccccc1)NC(=O)[C@H](CC(N)=O)NC(=O)[C@H](CC(N)=O)NC(=O)[C@H](CO)NC(=O)[C@H](CO)NC(=O)[C@H](Cc1c[nH]cn1)NC(=O)[C@@H](NC(=O)[C@H](CC(C)C)NC(=O)[C@H](Cc1ccccc1)NC(=O)[C@H](CC(N)=O)NC(=O)[C@H](C)NC(=O)[C@H](CC(C)C)NC(=O)[C@H](CCCNC(=N)N)NC(=O)[C@H](CCC(N)=O)NC(=O)[C@@H](NC(=O)[C@H](C)NC(=O)[C@@H]1CSSC[C@H](NC(=O)[C@@H](N)CCCCN)C(=O)N[C@@H](CC(N)=O)C(=O)N[C@@H]([C@@H](C)O)C(=O)N[C@@H](C)C(=O)N[C@@H]([C@@H](C)O)C(=O)N1)[C@@H](C)O)C(C)C)C(=O)N[C@@H](CC(C)C)C(=O)N[C@@H](CO)C(=O)N[C@@H](CO)C(=O)N[C@H](C(=O)N[C@@H](CC(N)=O)C(=O)N[C@H](C(=O)NCC(=O)N[C@@H](CO)C(=O)N[C@@H](CC(N)=O)C(=O)N[C@H](C(=O)N[C@@H](Cc1ccc(O)cc1)C(N)=O)[C@@H](C)O)C(C)C)[C@@H](C)O [human amylin]
- EC50: 0.438 nM

Reference: patent publication EP0586592B1, “INSULIN AND AMYLIN CONTAINING COMPOSITION FOR THE TREATMENT OF INSULIN DEFICIENT MAMMALS” (AMYLIN PHARMACEUTICALS, INC., priority 1991, dated 2000)
